These are literature values, as cited in patent US5627202A, “Inhibitors of farnesyl-protein transferase” (Merck & Co., Inc., priority 1996, dated 1997).

This data set has as its system farnesyl-protein transferase. The following applies: via HMG-CoA reductase inhibition.

On to `CC[C@H](C)C(=O)O[C@H]1CCC=C2C=C[C@H](C)[C@H](CC[C@@H]3C[C@@H](O)CC(=O)O3)[C@H]21` [compactin], for which the “Indirect inhibition of farnesyl-protein transferase in vivo” value was “Indirect inhibition of farnesyl-protein transferase in vivo”.

For `CC[C@H](C)C(=O)O[C@H]1C[C@@H](C)C=C2C=C[C@H](C)[C@H](CC[C@@H]3C[C@@H](O)CC(=O)O3)[C@H]21` [lovastatin], the “Indirect inhibition of farnesyl-protein transferase in vivo” value was “Indirect inhibition of farnesyl-protein transferase in vivo”.
